Among the data in PubChem BioAssay (NCI) are TGI values, retold here.

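The compound was tested at five concentrations on cells cultured in 96-well plates, with a 48-hour exposure period. TGI marks complete inhibition of growth.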

Some test systems named below: NCI-H460 lung; SK-OV-3 ovarian; SF-539 CNS; TK-10 renal; NCI-H23 lung; EKVX NSCLC; CCRF-CEM leukemia; HCT-116 colon; HOP-92 NSCLC; T-47D breast; HS 578T breast.
Common to all, as to assay: inhibition of tumour cell growth, NCI panel, 48 h

`Nc1nc(-c2ccccc2N=NN2CCCC2)nc2ccccc12`: the TGI was 17.9 µM with NCI-H460 lung; 21.4 µM in the assay on SK-OV-3 ovarian; 5 µM in the assay with SF-539 CNS; 14.5 µM in the assay with TK-10 renal; 8.06 µM with NCI-H23 lung; 23.8 µM with EKVX NSCLC. For the same compound, the TGI is 19.1 µM in the assay with CCRF-CEM leukemia; 2.55 µM in the assay on HCT-116 colon; 21.3 µM in the assay with HOP-92 NSCLC; 19.4 µM in the assay with T-47D breast; 18 µM with HS 578T breast.
For the compound `CC1OC2=N[C@@H]1C(=O)N[C@@H](C(C)C)C1=N[C@H](C(=O)N[C@@H](C(C)C)C3=N[C@H](C(=O)N[C@@H](C(C)C)C4=N[C@H](C(=O)N[C@H]2C(C)C)C(C)O4)C(C)O3)C(C)O1` (stereo partly drawn), the TGI in the assay with NCI-H460 lung, in the assay on SK-OV-3 ovarian, with SF-539 CNS, in the assay with TK-10 renal, in the assay on NCI-H23 lung and in the assay on EKVX NSCLC was over 10 µM each time. In addition, the TGI in the assay on CCRF-CEM leukemia, in the assay on HOP-92 NSCLC, in the assay on T-47D breast and in the assay with HS 578T breast was over 10 µM each time.
Regarding `COc1ccc(/C=c2\[nH]c3nc(=O)c(N4CCOCC4)c(N)n3c2=O)cc1`, the TGI in the assay with SK-OV-3 ovarian, in the assay on SF-539 CNS, in the assay on TK-10 renal, with NCI-H23 lung, with EKVX NSCLC and in the assay on CCRF-CEM leukemia was over 100 µM each time. Besides, the TGI in the assay on HCT-116 colon, in the assay on HOP-92 NSCLC, with T-47D breast and in the assay with HS 578T breast was over 100 µM throughout.
Regarding `C=C(CCC(C)C1CCC2C3=C(C(=O)CC21C)C1(C)CCC(=O)[C@@H](C)C1CC3=O)C(C)C(=O)O` (stereo partly drawn), the TGI in the assay on NCI-H460 lung was over 100 µM; in the assay on SK-OV-3 ovarian, 5.46 µM; in the assay on SF-539 CNS, over 100 µM; with TK-10 renal it was over 100 µM; in the assay on NCI-H23 lung it was over 100 µM; in the assay on EKVX NSCLC it was over 100 µM. Further, the TGI in the assay with CCRF-CEM leukemia is 42.2 µM; in the assay with HCT-116 colon, over 100 µM; in the assay on HOP-92 NSCLC, 78.7 µM; in the assay on T-47D breast it was over 100 µM; in the assay on HS 578T breast it was over 100 µM.
Take `Cc1cc(C)c(P2C(=C(O[Si](C(C)C)(C(C)C)C(C)C)C(C)(C)C)C2(c2ccccc2)c2ccccc2)c(C)c1` (stereo not drawn): the TGI with NCI-H460 lung, with SK-OV-3 ovarian, in the assay with SF-539 CNS, in the assay with TK-10 renal, in the assay with NCI-H23 lung and with EKVX NSCLC was over 100 µM each time. The TGI in the assay with CCRF-CEM leukemia, in the assay with HCT-116 colon, in the assay with HOP-92 NSCLC, in the assay with T-47D breast and with HS 578T breast was over 100 µM throughout.
Consider `COc1cc2nc(-c3ccc4ccccc4c3)[nH]c(=O)c2cc1OC`, for which the TGI in the assay on NCI-H460 lung, in the assay with SK-OV-3 ovarian, in the assay with NCI-H23 lung, in the assay with EKVX NSCLC, with CCRF-CEM leukemia and in the assay on HCT-116 colon was over 100 µM throughout. Besides, the TGI in the assay with HOP-92 NSCLC, in the assay with T-47D breast and in the assay with HS 578T breast was over 100 µM throughout.
Take `CC(C)=CCC[C@@H](C)C1=C(Nc2ccccc2Cl)C(O)=C(C)C(=O)C1=O`: the TGI in the assay with NCI-H460 lung was over 100 µM; in the assay with SK-OV-3 ovarian, 33.5 µM; with SF-539 CNS, 19.8 µM; with TK-10 renal, over 100 µM; in the assay on NCI-H23 lung, 15.9 µM; in the assay with EKVX NSCLC it was 29.7 µM. Moreover, the TGI in the assay on HCT-116 colon is over 43.7 µM; in the assay on HOP-92 NSCLC, 29.3 µM; in the assay with T-47D breast, 34.1 µM; with HS 578T breast it was 13.1 µM.
For `C/C(=N\NC(=S)N1CCCCC1)c1cccc(C)n1`, the TGI in the assay on NCI-H460 lung stood at 0.334 µM; with SF-539 CNS it was 0.413 µM; with TK-10 renal it was 21.3 µM; in the assay on NCI-H23 lung it was 10.7 µM; in the assay with EKVX NSCLC it was 31.2 µM; in the assay with HOP-92 NSCLC, 11.3 µM. Further, the TGI is 16.9 µM in the assay with T-47D breast and over 100 µM with HS 578T breast.
As for `O=CC(O)C(O)C(O)C(O)C(=O)NCCCCCCCCCCCCNC(=O)C(O)C(O)C(O)C(O)C=O` (stereo not drawn), the TGI in the assay with NCI-H460 lung, with SK-OV-3 ovarian, in the assay with SF-539 CNS, in the assay with TK-10 renal, with NCI-H23 lung and in the assay with EKVX NSCLC was over 100 µM throughout. For the same compound, the TGI with CCRF-CEM leukemia, in the assay with HCT-116 colon, in the assay on HOP-92 NSCLC, in the assay on T-47D breast and in the assay on HS 578T breast was over 100 µM in each case.
Regarding `CC(=O)O[C@@H]1C[C@@]23C[C@@]24CC[C@H](OC2OCC(O)C(O)C2O)C(C)(C)[C@@H]4CC=C3[C@]2(C)C[C@@H]3OC4(C[C@@H](C)[C@@H]3[C@@]12C)OC(O)[C@@]1(C)O[C@@H]41` (stereo partly drawn), the TGI was 66.9 µM in the assay with NCI-H460 lung; 62.8 µM with SK-OV-3 ovarian; 41.4 µM in the assay on SF-539 CNS; over 100 µM with TK-10 renal; over 100 µM in the assay with NCI-H23 lung; over 100 µM with EKVX NSCLC. Further, the TGI in the assay on CCRF-CEM leukemia was 63.5 µM; in the assay with HCT-116 colon, 49.7 µM; with HOP-92 NSCLC, over 100 µM; in the assay on T-47D breast it was 97.7 µM; with HS 578T breast, over 100 µM.
Regarding `Cc1nc2c3c(ncn2n1)Oc1c(c(-c2ccccc2)nn1-c1ccccc1)C3c1ccc(Cl)cc1` (stereo not drawn), the TGI is over 100 µM with NCI-H460 lung; over 100 µM in the assay on SK-OV-3 ovarian; 97.1 µM in the assay on SF-539 CNS; over 100 µM with TK-10 renal; over 100 µM with NCI-H23 lung; over 100 µM in the assay with EKVX NSCLC. The TGI in the assay on HCT-116 colon is over 100 µM; in the assay with HOP-92 NSCLC, over 100 µM; in the assay on T-47D breast, over 100 µM; in the assay on HS 578T breast, 74.1 µM.
Consider `c1ccc(CCNCc2ccco2)nc1`, for which the TGI in the assay on NCI-H460 lung, with SK-OV-3 ovarian, in the assay with SF-539 CNS, with TK-10 renal, in the assay on NCI-H23 lung and in the assay on EKVX NSCLC was over 100 µM in each case. The TGI with CCRF-CEM leukemia is over 100 µM; with HCT-116 colon, over 100 µM; with HOP-92 NSCLC, over 100 µM; with T-47D breast it was over 28.5 µM; in the assay on HS 578T breast it was over 100 µM.
